Common to all, as to type: biochemical
For one assay, the target named is JAK1 (Homo sapiens (Human), UniProt P23458). Description: JAK/TYK2 assay (Kinase Glo luminescence), JAK1. The conditions noted are these: 7.5 nM enzyme, 2 uM ATP, 30 uM IRS-1, 1 hr. How it is done: (§1) 10 mM test compound stock or 1 mM control compound stock (tofocitinib, ruxolitinib or staurosporine) in DMSO was diluted to 0.4 mM in DMSO. A 3-fold series dilution was then performed in DMSO to generate 10 different compound concentrations. The assay was carried out in 384-well white plate. 0.5 uL of 40× compound DMSO solution at different concentrations was mixed with 10 uL 2× enzyme prepared in reaction buffer (20 mM HEPES, 10 mM MgCl2, 0.01% Tween, 1 mM DTT, pH 7.5). 10 uL 2× substrate mixture prepared in reaction buffer was then added to start the reaction. A short spin was done to settle down all solutions to the bottom of the plate. Final concentrations of test compound in the reaction mixture were 10000, 3333, 1111, 370, 123, 41.2, 13.7, 4.57, 1.52and 0.51 nM. Concentrations of control compound were ten times less. Enzymatic reaction was conducted at 25° C. for 1-2 hours. 10 uL of Kinase Glo Reagents was added to stop the reaction and generate the luminescent signal which was measured using Envision. Luminescence signal was inversely related to kinase activity. […] The mixture without any compound was the positive control.
(In general: Kinase-Glo reads ATP consumption through a luciferase reaction.)

Another assay addresses JAK2 (Homo sapiens (Human), UniProt O60674). Description: JAK/TYK2 assay (Kinase Glo luminescence), JAK2. Conditions: 0.8 nM enzyme, 2 uM ATP, 4 uM pEY, 1 hr. The procedure: as §1
For a further assay, the target named is JAK3 (Homo sapiens (Human), UniProt P52333). Description: JAK/TYK2 assay (Kinase Glo luminescence), JAK3. The conditions noted are these: 1.5 nM enzyme, 2 uM ATP, 4 uM pEY, 1 hr. The procedure: as §1
The target of the next assay is TYK2 (Homo sapiens (Human), UniProt P29597). Description: JAK/TYK2 assay (Kinase Glo luminescence), TYK2. Conditions: 9 nM enzyme, 2 uM ATP, 30 uM IRS-1, 1 hr. How it is done: as §1
Chain of TYK2 (P29597 whole entry, species assumed): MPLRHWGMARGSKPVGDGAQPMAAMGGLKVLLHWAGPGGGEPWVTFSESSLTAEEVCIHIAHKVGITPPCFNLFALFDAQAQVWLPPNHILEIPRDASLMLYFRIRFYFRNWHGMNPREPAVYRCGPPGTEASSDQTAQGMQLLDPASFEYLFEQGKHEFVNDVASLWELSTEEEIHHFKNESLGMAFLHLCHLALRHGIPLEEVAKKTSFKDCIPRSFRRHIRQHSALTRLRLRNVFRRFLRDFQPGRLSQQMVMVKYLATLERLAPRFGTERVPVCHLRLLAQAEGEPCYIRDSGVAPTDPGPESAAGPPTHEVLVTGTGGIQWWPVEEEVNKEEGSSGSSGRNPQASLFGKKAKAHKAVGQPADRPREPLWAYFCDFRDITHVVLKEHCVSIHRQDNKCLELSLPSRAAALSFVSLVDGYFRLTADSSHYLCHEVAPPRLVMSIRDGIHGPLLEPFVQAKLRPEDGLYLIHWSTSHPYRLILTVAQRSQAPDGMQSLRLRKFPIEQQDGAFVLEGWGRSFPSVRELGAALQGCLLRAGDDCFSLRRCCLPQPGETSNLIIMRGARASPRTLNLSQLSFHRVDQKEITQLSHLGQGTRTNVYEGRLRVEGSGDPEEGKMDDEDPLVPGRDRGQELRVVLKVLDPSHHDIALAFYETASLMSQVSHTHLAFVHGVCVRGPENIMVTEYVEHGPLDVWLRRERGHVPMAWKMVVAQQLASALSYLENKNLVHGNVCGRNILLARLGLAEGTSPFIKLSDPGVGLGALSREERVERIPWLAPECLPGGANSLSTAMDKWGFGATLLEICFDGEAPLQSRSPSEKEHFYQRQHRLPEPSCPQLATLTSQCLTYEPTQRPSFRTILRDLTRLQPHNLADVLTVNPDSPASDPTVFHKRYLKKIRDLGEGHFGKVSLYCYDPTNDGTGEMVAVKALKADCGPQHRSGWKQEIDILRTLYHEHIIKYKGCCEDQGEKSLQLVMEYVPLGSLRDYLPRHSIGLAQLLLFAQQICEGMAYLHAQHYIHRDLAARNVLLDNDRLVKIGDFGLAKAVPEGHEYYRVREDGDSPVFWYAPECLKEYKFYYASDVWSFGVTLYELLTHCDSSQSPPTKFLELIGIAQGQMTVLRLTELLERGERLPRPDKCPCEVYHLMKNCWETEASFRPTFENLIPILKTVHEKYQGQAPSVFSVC

Chain of JAK3 (P52333 whole entry, species assumed): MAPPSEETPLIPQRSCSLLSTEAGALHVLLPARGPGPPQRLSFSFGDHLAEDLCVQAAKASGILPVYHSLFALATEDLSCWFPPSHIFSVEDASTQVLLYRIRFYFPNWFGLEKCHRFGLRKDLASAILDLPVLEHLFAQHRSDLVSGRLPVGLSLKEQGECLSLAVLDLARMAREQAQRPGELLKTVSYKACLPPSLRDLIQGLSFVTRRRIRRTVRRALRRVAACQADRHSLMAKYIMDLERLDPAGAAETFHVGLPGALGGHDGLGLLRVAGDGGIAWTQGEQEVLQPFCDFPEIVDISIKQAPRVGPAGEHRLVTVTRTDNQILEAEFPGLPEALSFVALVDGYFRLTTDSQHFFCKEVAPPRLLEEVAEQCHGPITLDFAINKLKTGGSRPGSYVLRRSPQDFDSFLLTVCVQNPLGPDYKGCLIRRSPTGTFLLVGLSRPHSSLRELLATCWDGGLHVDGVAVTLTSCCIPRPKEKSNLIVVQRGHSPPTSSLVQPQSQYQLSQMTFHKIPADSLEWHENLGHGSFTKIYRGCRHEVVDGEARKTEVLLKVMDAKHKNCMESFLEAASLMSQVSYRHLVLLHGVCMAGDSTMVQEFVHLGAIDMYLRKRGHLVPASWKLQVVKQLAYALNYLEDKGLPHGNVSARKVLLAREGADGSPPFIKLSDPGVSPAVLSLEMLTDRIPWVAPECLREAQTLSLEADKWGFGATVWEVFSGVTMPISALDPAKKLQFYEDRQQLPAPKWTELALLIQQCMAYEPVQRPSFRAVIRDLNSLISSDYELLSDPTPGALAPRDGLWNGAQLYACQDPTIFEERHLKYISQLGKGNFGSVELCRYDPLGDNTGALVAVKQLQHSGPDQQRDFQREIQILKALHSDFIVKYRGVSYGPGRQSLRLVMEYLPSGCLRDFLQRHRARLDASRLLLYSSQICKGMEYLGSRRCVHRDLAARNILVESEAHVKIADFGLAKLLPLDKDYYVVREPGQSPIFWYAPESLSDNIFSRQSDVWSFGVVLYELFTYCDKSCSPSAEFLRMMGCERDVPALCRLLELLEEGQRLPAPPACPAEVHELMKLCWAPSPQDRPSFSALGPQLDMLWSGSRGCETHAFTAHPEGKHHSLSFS
Chain of JAK2 (O60674 whole entry, species assumed): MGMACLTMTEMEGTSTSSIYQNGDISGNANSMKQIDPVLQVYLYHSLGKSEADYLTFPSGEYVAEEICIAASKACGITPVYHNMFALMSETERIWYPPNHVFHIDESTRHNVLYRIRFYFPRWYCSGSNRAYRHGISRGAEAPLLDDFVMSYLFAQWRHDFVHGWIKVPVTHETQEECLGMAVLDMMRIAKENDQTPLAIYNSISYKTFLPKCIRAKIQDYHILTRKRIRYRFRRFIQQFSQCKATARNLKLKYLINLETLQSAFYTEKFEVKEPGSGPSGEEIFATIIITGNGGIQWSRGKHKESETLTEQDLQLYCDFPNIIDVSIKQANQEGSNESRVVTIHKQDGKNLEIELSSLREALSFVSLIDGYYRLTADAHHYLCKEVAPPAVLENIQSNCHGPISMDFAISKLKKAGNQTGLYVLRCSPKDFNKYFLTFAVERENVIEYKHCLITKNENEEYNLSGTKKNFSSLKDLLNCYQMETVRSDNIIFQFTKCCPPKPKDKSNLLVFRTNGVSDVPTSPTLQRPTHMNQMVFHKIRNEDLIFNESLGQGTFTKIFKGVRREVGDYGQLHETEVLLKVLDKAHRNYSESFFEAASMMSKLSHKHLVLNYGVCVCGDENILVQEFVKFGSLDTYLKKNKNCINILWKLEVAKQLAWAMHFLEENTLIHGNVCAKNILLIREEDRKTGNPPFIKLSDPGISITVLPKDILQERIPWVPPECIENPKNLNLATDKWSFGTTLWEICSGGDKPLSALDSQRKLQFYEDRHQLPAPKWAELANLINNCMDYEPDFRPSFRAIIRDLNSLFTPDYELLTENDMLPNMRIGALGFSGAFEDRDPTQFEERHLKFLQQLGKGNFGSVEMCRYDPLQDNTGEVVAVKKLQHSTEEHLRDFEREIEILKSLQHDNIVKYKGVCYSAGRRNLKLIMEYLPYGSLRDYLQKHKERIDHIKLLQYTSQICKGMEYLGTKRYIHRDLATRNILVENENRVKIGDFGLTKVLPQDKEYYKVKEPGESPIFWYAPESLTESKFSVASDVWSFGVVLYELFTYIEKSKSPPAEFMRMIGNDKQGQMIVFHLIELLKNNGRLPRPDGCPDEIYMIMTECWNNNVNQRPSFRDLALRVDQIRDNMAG
Chain of JAK1 (P23458 whole entry, species assumed): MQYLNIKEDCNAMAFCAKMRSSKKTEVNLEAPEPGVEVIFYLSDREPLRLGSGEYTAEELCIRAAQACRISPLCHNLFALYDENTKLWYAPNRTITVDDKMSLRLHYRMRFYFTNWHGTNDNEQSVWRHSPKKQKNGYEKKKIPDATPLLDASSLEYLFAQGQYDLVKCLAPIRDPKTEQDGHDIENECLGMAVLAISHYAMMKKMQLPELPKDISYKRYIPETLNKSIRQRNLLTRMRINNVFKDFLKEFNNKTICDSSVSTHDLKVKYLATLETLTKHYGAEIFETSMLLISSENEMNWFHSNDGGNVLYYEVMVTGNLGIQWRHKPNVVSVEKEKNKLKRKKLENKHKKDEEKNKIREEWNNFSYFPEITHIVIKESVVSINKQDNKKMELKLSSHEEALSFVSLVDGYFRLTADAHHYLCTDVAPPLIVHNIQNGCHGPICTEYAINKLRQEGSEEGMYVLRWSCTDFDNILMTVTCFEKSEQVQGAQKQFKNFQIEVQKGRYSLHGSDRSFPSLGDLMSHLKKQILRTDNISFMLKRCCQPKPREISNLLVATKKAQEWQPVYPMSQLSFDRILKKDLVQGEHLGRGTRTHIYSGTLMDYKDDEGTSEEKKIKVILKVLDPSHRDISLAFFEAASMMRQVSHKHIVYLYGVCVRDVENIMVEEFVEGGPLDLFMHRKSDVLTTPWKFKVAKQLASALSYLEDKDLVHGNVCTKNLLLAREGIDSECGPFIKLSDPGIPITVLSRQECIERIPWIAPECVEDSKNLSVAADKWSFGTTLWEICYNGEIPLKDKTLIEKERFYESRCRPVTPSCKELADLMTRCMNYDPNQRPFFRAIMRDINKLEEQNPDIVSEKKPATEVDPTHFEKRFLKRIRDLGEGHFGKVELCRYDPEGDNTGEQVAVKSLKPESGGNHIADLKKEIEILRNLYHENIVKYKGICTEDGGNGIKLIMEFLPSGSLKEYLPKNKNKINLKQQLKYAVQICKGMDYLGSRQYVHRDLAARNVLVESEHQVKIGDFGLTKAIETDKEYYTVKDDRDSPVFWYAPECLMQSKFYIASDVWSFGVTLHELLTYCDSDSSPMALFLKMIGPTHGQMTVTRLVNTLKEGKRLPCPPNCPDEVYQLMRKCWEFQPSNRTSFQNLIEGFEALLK

As for `CCOC(=O)c1ccc(Nc2ncc3ccn(CC(CC)CC)c3n2)cc1` [Compound 26, ethyl 4-((7-(2-ethylbutyl)-7H-pyrrolo[2,3-d]pyrimidin-2-yl)amino)benzoate], the IC50 on JAK1, against JAK2, at JAK3 and at TYK2 was 100 to 1000 nM each time.

As to `CCOC(=O)C(C)(C)n1cc(Nc2ncc3ccn(CC(CC)CC)c3n2)cn1` [Compound 27, ethyl 2-(4-((7-(2-ethylbutyl)-7H-pyrrolo[2,3-d]pyrimidin-2-yl)amino)-1H-pyrazol-1-yl)-2-methylpropanoate], the IC50 at JAK1, against JAK2, at JAK3 and against TYK2 was less than 100 nM throughout.

For the compound `CCOC(=O)C(C)n1cc(Nc2ncc3ccn(CC(CC)CC)c3n2)cn1` (stereo not shown) [Compound 28, ethyl 2-(4-((7-(2-ethylbutyl)-7H-pyrrolo[2,3-d]pyrimidin-2-yl)amino)-1H-pyrazol-1-yl)propanoate], the IC50 on JAK1, against JAK2, against JAK3 and against TYK2 was less than 100 nM throughout.

Take `CCC(Cn1ccc2cnc(Nc3cnn(CC(=O)O)c3)nc21)C(C)C` (stereo not shown) [Compound 29, 2-(4-((7-(2-ethyl-3-methylbutyl)-7H-pyrrolo[2,3-d]pyrimidin-2-yl)amino)-1H-pyrazol-1-yl)acetic acid]: the IC50 against JAK1, against JAK2, on JAK3 and against TYK2 was less than 100 nM throughout.

In the case of `CCOC(=O)CCn1cc(Nc2ncc3ccn(CC(CC)C(C)C)c3n2)cn1` (stereo not shown) [Compound 30, ethyl 3-(4-((7-(2-ethyl-3-methylbutyl)-7H-pyrrolo[2,3-d]pyrimidin-2-yl)amino)-1H-pyrazol-1-yl)propanoate], the IC50 against JAK1, against JAK2, against JAK3 and on TYK2 was less than 100 nM throughout.

As for `CCC(Cn1ccc2cnc(Nc3cnn(CCC(=O)O)c3)nc21)C(C)C` (stereo not shown) [Compound 31, 3-(4-((7-(2-ethyl-3-methylbutyl)-7H-pyrrolo[2,3-d]pyrimidin-2-yl)amino)-1H-pyrazol-1-yl)propanoic acid], the IC50 against JAK1, at JAK2, at JAK3 and against TYK2 was less than 100 nM each time.

Consider `CCOC(=O)Cn1cc(Nc2ncc3ccn(CC45CC6CC(CC(C6)C4)C5)c3n2)cn1` [Compound 34, ethyl 2-(4-((7-(((s,3s)-adamantan-1-yl)methyl)-7H-pyrrolo[2,3-d]pyrimidin-2-yl)amino)-1H-pyrazol-1-yl)acetate], for which the IC50 (commonly the concentration that gives 50% inhibition) is 100 to 1000 nM against JAK1, less than 100 nM at JAK2, less than 100 nM on JAK3 and less than 100 nM against TYK2.

For the compound `CCOC(=O)Cn1cc(Nc2ncc3ccn(CC4CCCCC4(F)F)c3n2)cn1` (stereo not shown) [Compound 35, ethyl 2-(4-((7-((2,2-difluorocyclohexyl)methyl)-7H-pyrrolo[2,3-d]pyrimidin-2-yl)amino)-1H-pyrazol-1-yl)acetate], the IC50 on JAK1, against JAK2, against JAK3 and against TYK2 was less than 100 nM in each case.

Take `CCOC(=O)Cn1cc(Nc2ncc3ccn(CC4CCCC(F)(F)C4)c3n2)cn1` (stereo not shown) [Compound 36, ethyl 2-(4-((7-((3,3-difluorocyclohexyl)methyl)-7H-pyrrolo[2,3-d]pyrimidin-2-yl)amino)-1H-pyrazol-1-yl)acetate]: the IC50 against JAK1, at JAK2, against JAK3 and at TYK2 was less than 100 nM each time.

For the compound `O=C(O)Cn1cc(Nc2ncc3ccn(CC4CCCCC4(F)F)c3n2)cn1` (stereo not shown) [Compound 37, 2-(4-((7-((2,2-difluorocyclohexyl)methyl)-7H-pyrrolo[2,3-d]pyrimidin-2-yl)amino)-1H-pyrazol-1-yl)acetic acid], the half-maximal inhibitory concentration (IC50) at JAK1, on JAK2, against JAK3 and against TYK2 was less than 100 nM in each case.

Turning to `O=C(O)Cn1cc(Nc2ncc3ccn(CC4CCCC(F)(F)C4)c3n2)cn1` (stereo not shown) [Compound 38, 2-(4-((7-((3,3-difluorocyclohexyl)methyl)-7H-pyrrolo[2,3-d]pyrimidin-2-yl)amino)-1H-pyrazol-1-yl)acetic acid], the IC50 against JAK1, at JAK2, against JAK3 and at TYK2 was less than 100 nM each time.

For the compound `CCOC(=O)Cn1cc(Nc2ncc3ccn(CC4CC5CCC4C5)c3n2)cn1` (stereo not shown) [Compound 40, ethyl 2-(4-((7-(bicyclo[2.2.1]heptan-2-ylmethyl)-7H-pyrrolo[2,3-d]pyrimidin-2-yl)amino)-1H-pyrazol-1-yl)acetate], the IC50 against JAK1, on JAK2, against JAK3 and at TYK2 was less than 100 nM each time.

As for `CCOC(=O)Cn1cc(Nc2ncc3ccn(CC4(C)CCCC4)c3n2)cn1` [Compound 41, ethyl 2-(4-((7-((1-methylcyclopentyl)methyl)-7H-pyrrolo[2,3-d]pyrimidin-2-yl)amino)-1H-pyrazol-1-yl)acetate], the IC50 against JAK1, against JAK2, on JAK3 and against TYK2 was less than 100 nM each time.

Consider `CCOC(=O)Cn1cc(Nc2ncc3ccn(CC4CCCCC4C)c3n2)cn1` (stereo not shown) [Compound 42, ethyl 2-(4-((7-((2-methylcyclohexyl)methyl)-7H-pyrrolo[2,3-d]pyrimidin-2-yl)amino)-1H-pyrazol-1-yl)acetate], for which the IC50 against JAK1, against JAK2, on JAK3 and against TYK2 was less than 100 nM in each case.

With `CCOC(=O)Cn1cc(Nc2ncc3ccn(CC4CCCCCC4)c3n2)cn1` [Compound 43, ethyl 2-(4-((7-(cycloheptylmethyl)-7H-pyrrolo[2,3-d]pyrimidin-2-yl)amino)-1H-pyrazol-1-yl)acetate], the IC50 at JAK1 is 100 to 1000 nM; against JAK2, less than 100 nM; on JAK3, less than 100 nM; against TYK2, less than 100 nM.

`CCOC(=O)Cn1ccc(Nc2ncc3ccn(CC(CC)CC)c3n2)n1` [Compound 44, ethyl 2-(3-((7-(2-ethylbutyl)-7H-pyrrolo[2,3-d]pyrimidin-2-yl)amino)-1H-pyrazol-1-yl)acetate]: the IC50 lay within 1000 to 10000 nM on JAK1, 100 to 1000 nM against JAK2, 100 to 1000 nM on JAK3 and 100 to 1000 nM on TYK2.

In the case of `CCOC(=O)Cn1cc(Nc2ncc3ccn(CC4CCCC(C)C4)c3n2)cn1` (stereo not shown) [Compound 45, ethyl 2-(4-((7-((3-methylcyclohexyl)methyl)-7H-pyrrolo[2,3-d]pyrimidin-2-yl)amino)-1H-pyrazol-1-yl)acetate], the half-inhibitory concentration (IC50) on JAK1, at JAK2, against JAK3 and against TYK2 was less than 100 nM each time.

On to `CCOC(=O)Cn1cc(Nc2ncc3ccn(CC4CCC(C)CC4)c3n2)cn1` (stereo not shown) [Compound 46, ethyl 2-(4-((7-((4-methylcyclohexyl)methyl)-7H-pyrrolo[2,3-d]pyrimidin-2-yl)amino)-1H-pyrazol-1-yl)acetate], for which the concentration for half-maximal inhibition (IC50) against JAK1, at JAK2, on JAK3 and at TYK2 was less than 100 nM throughout.

Turning to `CCOC(=O)Cn1cc(Nc2ncc3ccn(CC4(C)CCCCC4)c3n2)cn1` [Compound 47, ethyl 2-(4-((7-((1-methylcyclohexyl)methyl)-7H-pyrrolo[2,3-d]pyrimidin-2-yl)amino)-1H-pyrazol-1-yl)acetate], the IC50 on JAK1, on JAK2, against JAK3 and at TYK2 was less than 100 nM throughout.

On to `CCOC(=O)Cn1cc(Nc2ncc3ccn(C[C@@H]4C[C@@H]5C[C@@H]5C4)c3n2)cn1` [Compound 48, ethyl 2-(4-((7-(((1R,3r,5S)-bicyclo[3.1.0]hexan-3-yl)methyl)-7H-pyrrolo[2,3-d]pyrimidin-2-yl)amino)-1H-pyrazol-1-yl)acetate], for which the concentration for half-maximal inhibition (IC50) against JAK1, against JAK2, on JAK3 and against TYK2 was less than 100 nM throughout.

In the case of `CCOC(=O)Cn1cc(Nc2ncc3ccn(CC(CC)C(C)C)c3n2)cn1` (stereo not shown) [Compound 49, ethyl 2-(4-((7-(2-ethyl-3-methylbutyl)-7H-pyrrolo[2,3-d]pyrimidin-2-yl)amino)-1H-pyrazol-1-yl)acetate], the IC50 against JAK1, on JAK2, at JAK3 and on TYK2 was less than 100 nM each time.

Take `CCOC(=O)Cn1cc(Nc2ncc3ccn(CC(C(C)C)C(C)C)c3n2)cn1` [Compound 50, ethyl 2-(4-((7-(2-isopropyl-3-methylbutyl)-7H-pyrrolo[2,3-d]pyrimidin-2-yl)amino)-1H-pyrazol-1-yl)acetate]: the IC50 at JAK1, against JAK2, against JAK3 and against TYK2 was less than 100 nM each time.

(Values after patent US11136329B2, “JAK inhibitors” (Vimalan Biosciences, Inc., priority 2019, dated 2021).)
